# In ChEMBL document CHEMBL1201862, “PubChem BioAssay data set” (2004):
# Calls of active or inactive are those of the source.
# Assays:
# Nonstructural protein 1 = Nonstructural protein 1 (Influenza A virus, UniProt Q194T2); format: functional, Influenza A virus (A/California/07/2009(H1N1))
# P388/ADR = assay: cells; format: functional; conditions: Mus musculus
# SN12K1 = assay: cells; format: functional; conditions: Homo sapiens
# P388 = assay: cells; format: functional; conditions: Mus musculus
# [1] = biological target: T1, Rac GTPase-activating protein 1 (Homo sapiens, UniProt Q9H0H5); assay: MgcRacGAP GTPase-activating activity inhibitors, confirmation, biochemical, ADP Hunter fluorescence, primary and confirmatory (AID 624330); format: functional
# T1 sequence (Q9H0H5 whole entry): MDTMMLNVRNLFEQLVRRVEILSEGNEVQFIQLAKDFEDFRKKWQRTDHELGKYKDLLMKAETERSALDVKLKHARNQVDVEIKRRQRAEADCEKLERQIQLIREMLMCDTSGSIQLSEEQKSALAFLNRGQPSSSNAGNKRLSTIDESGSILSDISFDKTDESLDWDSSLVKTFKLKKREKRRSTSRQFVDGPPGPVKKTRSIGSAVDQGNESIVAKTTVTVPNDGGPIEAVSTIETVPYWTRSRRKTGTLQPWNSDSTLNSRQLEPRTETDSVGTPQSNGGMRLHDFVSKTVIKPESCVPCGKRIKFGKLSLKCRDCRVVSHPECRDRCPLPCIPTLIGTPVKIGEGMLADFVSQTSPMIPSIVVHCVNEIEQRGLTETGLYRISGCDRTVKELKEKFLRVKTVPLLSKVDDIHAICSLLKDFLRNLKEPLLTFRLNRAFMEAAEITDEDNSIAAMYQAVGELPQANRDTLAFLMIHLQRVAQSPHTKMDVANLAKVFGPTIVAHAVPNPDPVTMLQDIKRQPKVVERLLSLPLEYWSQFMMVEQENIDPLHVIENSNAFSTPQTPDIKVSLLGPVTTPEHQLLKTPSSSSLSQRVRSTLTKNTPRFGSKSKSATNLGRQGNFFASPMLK
# [2] = biological target: T2, DNA repair protein RAD52 homolog (Homo sapiens, UniProt P43351); format: functional, biochemical
# T2 sequence (P43351 whole entry): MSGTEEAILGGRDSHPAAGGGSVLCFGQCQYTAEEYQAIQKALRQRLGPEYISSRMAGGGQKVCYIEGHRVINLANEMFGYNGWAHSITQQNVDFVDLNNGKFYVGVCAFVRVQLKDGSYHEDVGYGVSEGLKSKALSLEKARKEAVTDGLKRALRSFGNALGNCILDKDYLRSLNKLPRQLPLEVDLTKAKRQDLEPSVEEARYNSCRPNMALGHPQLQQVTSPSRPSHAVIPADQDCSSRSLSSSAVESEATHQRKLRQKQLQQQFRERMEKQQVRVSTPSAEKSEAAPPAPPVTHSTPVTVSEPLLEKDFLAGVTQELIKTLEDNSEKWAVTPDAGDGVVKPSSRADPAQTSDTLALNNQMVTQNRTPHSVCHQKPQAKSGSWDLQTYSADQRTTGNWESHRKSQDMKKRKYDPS
# cells [3] = format: functional, cell-based
# [4] = biological target: T3, Trace amine-associated receptor 1 (Homo sapiens, UniProt Q96RJ0); assay: Fluorescence-based cell-based high throughput dose response assay to identify agonists of the human trace amine associated receptor 1 (TAAR1).; format: functional
# T3 sequence (Q96RJ0 whole entry): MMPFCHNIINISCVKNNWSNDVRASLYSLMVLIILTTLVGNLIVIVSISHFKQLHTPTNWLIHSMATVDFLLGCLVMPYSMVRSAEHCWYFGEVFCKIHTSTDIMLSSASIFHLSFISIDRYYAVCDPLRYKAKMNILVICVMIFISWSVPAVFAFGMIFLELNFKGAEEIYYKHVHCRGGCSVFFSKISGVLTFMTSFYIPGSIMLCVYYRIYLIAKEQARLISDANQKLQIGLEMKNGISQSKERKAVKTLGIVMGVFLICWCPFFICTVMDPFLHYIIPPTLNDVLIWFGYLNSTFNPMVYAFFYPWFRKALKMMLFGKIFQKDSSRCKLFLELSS
# [5] = biological target: T3, Trace amine-associated receptor 1; assay: Counterscreen for agonists of the human trace amine associated receptor 1 (hTAAR1): Fluorescence-based cell-based high throughput dose response assay to identify hTAAR1 agonist that also desensitize TAAR1 receptor response.; format: functional
# cells [6] = format: functional, cell-based; remark: listed apart in the source
# [7] = biological target: Disintegrin and metalloproteinase domain-containing protein 17 (Homo sapiens, UniProt P78536); assay: exosite inhibitors of ADAM17, dose response, biochemical (AID 743260)
# Disintegrin and metalloproteinase domain-containing protein 17, sequence (P78536 whole entry, the tested form may be a part): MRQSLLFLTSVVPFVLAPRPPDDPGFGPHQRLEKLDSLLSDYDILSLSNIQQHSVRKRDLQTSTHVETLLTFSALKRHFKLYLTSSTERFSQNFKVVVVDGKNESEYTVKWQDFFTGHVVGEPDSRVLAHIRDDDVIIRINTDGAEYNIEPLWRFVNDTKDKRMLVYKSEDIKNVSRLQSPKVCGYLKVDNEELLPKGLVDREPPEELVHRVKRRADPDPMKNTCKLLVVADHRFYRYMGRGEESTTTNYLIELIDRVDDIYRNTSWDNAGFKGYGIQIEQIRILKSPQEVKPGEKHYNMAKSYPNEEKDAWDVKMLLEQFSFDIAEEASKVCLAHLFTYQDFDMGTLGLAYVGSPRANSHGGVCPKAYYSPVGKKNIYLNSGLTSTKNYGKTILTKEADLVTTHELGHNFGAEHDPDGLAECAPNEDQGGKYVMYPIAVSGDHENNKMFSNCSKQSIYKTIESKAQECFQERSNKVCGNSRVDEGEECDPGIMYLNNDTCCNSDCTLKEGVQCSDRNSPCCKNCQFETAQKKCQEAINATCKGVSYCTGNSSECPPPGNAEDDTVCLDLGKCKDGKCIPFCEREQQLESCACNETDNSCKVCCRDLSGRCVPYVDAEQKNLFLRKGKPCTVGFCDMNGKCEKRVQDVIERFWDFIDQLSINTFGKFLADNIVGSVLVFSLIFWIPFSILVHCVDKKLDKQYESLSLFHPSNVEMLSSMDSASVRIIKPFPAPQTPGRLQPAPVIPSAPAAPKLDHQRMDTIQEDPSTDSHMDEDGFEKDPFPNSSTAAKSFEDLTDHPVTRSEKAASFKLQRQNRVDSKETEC
# [8] = ADAM10 protease inhibitors, dose response, selectivity assay for ADAM17 exosite inhibitor project, biochemical, FRET peptide substrate, recombinant human ADAM10 (AID 743259);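 also: ADAM10 enzyme cleaving a FRET peptide substrate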
# [9] = biological target: T4, Oxysterols receptor LXR-beta (Homo sapiens, UniProt P55055); format: functional, cell-based;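 also: Cell-based luminescence dose-response assay of agonist activity at LXR, run as a confirmatory counterscreen to a daf-12 agonist screen; HEK293 cells with Gal4-LXR fusion and GAL4-driven luciferase reporter; agonist potency from rising luciferase signal of a Gal4-LXR reporter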
# T4 sequence (P55055 whole entry): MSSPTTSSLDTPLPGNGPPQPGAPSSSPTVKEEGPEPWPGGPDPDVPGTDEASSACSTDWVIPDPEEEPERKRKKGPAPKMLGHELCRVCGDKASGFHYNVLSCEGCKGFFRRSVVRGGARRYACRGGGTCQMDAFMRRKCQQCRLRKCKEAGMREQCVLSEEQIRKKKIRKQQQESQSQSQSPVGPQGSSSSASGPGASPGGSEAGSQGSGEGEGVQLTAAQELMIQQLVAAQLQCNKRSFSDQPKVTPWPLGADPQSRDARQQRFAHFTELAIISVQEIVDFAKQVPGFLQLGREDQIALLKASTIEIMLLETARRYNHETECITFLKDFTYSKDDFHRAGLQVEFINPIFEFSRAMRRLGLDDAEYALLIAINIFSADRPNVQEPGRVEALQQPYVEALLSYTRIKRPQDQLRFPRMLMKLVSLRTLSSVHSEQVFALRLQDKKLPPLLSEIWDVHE
# cells [10] = assay: cells
# [11] = biological target: T5, High affinity choline transporter 1 (Homo sapiens, UniProt Q9GZV3); assay: CHT inhibitors, dose response, cell-based, 5-point CRC, membrane potential dye (AID 504840); format: functional
# T5 sequence (Q9GZV3 whole entry): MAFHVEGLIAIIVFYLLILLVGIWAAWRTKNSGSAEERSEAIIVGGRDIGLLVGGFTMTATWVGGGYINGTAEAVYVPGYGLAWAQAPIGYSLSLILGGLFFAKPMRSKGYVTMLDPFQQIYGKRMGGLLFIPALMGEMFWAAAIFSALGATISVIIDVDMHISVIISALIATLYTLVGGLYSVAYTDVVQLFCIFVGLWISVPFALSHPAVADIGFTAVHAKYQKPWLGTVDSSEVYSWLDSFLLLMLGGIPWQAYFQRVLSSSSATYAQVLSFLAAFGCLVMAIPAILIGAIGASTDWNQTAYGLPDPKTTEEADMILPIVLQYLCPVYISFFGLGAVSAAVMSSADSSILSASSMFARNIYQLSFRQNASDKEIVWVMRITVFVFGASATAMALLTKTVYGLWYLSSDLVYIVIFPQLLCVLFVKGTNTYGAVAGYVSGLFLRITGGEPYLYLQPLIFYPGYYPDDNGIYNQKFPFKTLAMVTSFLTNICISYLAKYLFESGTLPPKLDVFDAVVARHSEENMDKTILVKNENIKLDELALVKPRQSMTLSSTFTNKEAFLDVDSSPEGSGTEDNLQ
# [12] = biological target: T6, Carboxy-terminal domain RNA polymerase II polypeptide A small phosphatase 1 (Homo sapiens, UniProt Q9GZU7); assay: inhibitors of CTDSP1, concentration-response testing, biochemical assay, absorbance-based, actives from ultra-high-throughput screening (AID 540297); format: functional
# T6 sequence (Q9GZU7 whole entry): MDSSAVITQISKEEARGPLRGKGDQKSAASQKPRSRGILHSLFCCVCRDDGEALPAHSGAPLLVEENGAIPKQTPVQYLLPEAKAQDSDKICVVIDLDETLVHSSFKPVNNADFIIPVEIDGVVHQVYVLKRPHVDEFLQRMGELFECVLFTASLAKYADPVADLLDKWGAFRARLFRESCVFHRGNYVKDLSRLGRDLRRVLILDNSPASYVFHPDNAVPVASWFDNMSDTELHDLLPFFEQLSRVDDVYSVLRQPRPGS
# Fatty acid synthase [13] = biological target: T7, Fatty acid synthase (Homo sapiens, UniProt P49327); assay: FAS thioesterase domain inhibitors, dose response, biochemical, endpoint fluorescence intensity, uHTS hits (AID 624327); format: functional;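 also: fluorescence from hydrolysis of an O-methyl fluorescein acyl ester substrate by the enzyme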
# T7 sequence (P49327 whole entry, the tested form may be a part): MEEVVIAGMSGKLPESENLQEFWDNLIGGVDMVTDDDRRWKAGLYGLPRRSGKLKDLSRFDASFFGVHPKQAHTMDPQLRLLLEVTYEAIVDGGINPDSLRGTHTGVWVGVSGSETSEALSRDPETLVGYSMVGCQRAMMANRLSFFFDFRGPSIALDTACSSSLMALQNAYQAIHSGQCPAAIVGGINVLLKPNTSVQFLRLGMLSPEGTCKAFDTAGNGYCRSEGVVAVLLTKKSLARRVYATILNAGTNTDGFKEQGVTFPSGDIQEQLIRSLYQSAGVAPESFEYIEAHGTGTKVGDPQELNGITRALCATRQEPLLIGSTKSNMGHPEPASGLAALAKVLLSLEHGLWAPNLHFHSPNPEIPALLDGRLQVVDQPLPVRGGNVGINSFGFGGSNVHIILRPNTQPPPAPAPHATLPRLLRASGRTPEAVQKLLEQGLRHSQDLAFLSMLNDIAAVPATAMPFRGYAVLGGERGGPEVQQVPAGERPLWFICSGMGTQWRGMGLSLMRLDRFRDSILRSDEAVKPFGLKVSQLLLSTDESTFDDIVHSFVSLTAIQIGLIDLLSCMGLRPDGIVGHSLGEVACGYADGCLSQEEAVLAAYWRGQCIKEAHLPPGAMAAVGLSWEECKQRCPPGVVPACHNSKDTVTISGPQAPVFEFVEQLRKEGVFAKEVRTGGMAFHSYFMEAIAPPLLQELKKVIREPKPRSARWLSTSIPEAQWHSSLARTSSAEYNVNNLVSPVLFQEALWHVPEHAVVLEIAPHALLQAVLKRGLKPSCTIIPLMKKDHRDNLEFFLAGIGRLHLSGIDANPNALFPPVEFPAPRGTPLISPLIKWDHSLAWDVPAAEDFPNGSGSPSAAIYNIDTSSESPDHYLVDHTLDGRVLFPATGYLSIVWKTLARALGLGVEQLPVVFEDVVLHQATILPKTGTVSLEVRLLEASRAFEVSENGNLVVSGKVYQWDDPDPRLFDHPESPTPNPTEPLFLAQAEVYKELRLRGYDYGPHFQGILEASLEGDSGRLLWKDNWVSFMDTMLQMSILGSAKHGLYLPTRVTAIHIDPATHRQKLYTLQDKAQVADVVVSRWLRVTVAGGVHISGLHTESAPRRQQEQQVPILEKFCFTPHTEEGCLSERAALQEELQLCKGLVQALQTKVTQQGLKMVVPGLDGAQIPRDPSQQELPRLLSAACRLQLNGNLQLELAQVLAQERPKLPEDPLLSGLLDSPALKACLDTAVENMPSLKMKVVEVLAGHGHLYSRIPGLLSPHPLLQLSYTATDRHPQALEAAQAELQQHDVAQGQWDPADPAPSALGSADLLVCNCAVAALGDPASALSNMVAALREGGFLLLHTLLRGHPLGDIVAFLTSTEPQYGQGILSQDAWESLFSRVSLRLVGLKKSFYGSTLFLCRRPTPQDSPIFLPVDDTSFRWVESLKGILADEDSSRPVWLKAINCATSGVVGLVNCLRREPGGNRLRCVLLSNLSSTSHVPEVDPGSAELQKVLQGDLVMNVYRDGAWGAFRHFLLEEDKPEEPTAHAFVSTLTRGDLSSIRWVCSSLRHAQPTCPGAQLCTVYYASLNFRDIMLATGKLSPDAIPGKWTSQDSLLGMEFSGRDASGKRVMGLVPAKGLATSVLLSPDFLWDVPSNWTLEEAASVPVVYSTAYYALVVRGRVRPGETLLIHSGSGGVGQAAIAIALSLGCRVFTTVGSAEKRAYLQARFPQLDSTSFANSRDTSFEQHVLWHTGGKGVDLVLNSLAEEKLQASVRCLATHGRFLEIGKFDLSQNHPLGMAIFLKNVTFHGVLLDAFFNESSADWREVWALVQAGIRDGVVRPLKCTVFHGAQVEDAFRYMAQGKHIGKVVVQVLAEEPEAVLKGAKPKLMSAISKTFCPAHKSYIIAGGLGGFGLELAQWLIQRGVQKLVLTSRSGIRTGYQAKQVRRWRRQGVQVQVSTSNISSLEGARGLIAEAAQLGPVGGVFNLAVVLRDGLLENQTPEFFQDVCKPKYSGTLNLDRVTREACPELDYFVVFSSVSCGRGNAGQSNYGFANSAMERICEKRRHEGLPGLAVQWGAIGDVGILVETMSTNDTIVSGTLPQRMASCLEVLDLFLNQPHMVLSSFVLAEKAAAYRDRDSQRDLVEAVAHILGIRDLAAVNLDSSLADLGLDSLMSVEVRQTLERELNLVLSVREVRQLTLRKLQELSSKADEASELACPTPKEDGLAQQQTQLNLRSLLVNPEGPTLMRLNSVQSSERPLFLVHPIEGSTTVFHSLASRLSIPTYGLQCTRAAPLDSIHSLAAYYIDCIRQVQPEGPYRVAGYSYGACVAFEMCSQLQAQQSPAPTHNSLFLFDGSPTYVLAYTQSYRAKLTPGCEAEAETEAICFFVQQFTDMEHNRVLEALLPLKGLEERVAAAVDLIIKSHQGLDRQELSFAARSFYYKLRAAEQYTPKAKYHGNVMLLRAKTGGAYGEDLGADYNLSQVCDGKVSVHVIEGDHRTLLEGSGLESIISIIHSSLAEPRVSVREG
# Fatty acid synthase [14] = biological target: T7, Fatty acid synthase; assay: FAS thioesterase domain inhibitors, dose response, biochemical, kinetic fluorescence intensity (AID 624326); format: functional;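 also: rate of fluorescence rise from hydrolysis of a fluorogenic O-methyl fluorescein ester substrate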
# [15] = biological target: T8, Histone-lysine N-methyltransferase NSD2 (Homo sapiens, UniProt O96028); format: biochemical
# T8 sequence (O96028 whole entry): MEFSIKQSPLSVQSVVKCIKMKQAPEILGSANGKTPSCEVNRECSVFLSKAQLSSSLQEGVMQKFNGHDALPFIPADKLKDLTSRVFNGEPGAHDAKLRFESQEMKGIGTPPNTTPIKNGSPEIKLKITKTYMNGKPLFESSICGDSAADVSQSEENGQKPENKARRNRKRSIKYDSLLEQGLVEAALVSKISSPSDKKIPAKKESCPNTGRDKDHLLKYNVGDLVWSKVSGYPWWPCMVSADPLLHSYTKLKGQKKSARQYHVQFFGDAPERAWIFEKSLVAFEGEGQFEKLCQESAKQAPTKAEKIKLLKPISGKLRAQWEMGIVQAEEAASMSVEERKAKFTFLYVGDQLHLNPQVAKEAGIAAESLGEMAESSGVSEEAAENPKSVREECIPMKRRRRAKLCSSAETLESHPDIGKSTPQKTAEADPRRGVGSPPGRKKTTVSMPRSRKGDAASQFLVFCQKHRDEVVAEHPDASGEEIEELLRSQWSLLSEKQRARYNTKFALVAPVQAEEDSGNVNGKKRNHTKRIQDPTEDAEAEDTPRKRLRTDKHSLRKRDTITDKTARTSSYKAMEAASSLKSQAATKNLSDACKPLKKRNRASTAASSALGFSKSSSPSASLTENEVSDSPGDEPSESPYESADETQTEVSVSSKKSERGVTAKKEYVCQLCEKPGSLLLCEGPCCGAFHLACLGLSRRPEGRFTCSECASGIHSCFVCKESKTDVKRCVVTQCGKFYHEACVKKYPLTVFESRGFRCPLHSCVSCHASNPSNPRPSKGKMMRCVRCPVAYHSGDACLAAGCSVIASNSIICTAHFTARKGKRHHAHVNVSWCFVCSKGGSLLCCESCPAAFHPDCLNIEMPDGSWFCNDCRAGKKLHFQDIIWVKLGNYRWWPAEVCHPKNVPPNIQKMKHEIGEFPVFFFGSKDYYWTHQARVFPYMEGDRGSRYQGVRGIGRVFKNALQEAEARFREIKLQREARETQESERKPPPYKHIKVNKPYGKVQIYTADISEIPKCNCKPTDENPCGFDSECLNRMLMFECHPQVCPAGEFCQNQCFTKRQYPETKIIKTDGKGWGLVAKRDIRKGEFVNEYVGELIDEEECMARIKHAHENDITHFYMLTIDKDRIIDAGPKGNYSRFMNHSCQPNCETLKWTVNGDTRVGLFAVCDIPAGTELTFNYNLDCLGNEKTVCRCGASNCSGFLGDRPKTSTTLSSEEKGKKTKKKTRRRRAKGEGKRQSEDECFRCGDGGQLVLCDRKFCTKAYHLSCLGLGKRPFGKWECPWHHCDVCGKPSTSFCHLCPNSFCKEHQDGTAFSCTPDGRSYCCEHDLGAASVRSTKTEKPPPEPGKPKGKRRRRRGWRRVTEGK
# Nonstructural protein 1, sequence (Q194T2 whole entry): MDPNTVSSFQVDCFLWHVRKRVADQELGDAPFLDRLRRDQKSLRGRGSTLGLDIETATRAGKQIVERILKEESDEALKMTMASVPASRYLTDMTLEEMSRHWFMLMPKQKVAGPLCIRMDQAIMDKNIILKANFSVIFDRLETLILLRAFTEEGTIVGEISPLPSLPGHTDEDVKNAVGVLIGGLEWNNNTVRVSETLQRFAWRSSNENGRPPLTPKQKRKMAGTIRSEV
smiles,measurement,setting,value
COc1cc2c(ccc3c4cc(OC)c(OC)cc4c[n+](C)c23)cc1O [FAGARONINE],IC50,Nonstructural protein 1,> 100 µM (active)
same,GI50,P388/ADR,66.5 µM (inactive)
same,GI50,SN12K1,1.95 µM (inactive)
same,GI50,P388,0.489 µM (active)
same,IC50,[1],42.5 µM (active)
same,AC50,[2],< 0.244 µM (active)
NS(=O)(=O)c1ccc(CCNC(=O)CNCCc2ccccc2)cc1,IC50,cells [3],> 29.9 µM (inactive)
same,EC50,[4],1.07 µM (active)
same,IC50,[5],3.56 µM (active)
same,EC50,cells [6],> 29.9 µM (inactive)
COc1cccc(C(=O)N[C@H](C(=O)N2CCC[C@H]2C(=O)NCCc2ccccc2Cl)C2CCCCC2)c1,IC50,cells [3],> 29.9 µM (inactive)
same,EC50,[4],6.72 µM (active)
same,IC50,[5],6.66 µM (active)
same,EC50,cells [6],> 29.9 µM (inactive)
CCCCC[C@@H](C)N1C[C@@H](COCc2ccccc2)Oc2cc(N3CCC[C@H]3CO)ccc2S1(=O)=O,IC50,[7],> 69.5 µM (inactive)
same,IC50,[8],9.07 µM (active)
NS(=O)(=O)c1ccc(N/N=C/C=C/c2ccccc2[N+](=O)[O-])cc1,IC50,[7],> 69.5 µM (inactive)
same,IC50,[8],13.7 µM (inactive)
O=C(/C=C/Nc1ccc(F)cc1)c1cccs1,EC50,[9],> 67.6 µM (inactive)
same,EC50,cells [10],> 67.6 µM (inactive)
Cc1ccc(-n2[nH]c(C)c(/C=N/Nc3ccc([N+](=O)[O-])cc3[N+](=O)[O-])c2=O)cc1C,IC50,[11],10.5 µM (active)
same,IC50,[12],3.32 µM (active)
same,IC50,Fatty acid synthase [13],53.5 µM (inactive)
same,IC50,Fatty acid synthase [14],32.9 µM (inactive)
same,AC50,[15],14 µM (active)
Cc1ccc(C)c(NC(=O)c2ccc3ccccc3n2)c1,EC50,[9],> 67.5 µM (inactive)
same,EC50,cells [10],> 67.5 µM (inactive)
CCN1CCN(c2ccc(/N=C/c3ccccc3O)cc2)CC1,IC50,[1],20.8 µM (active)
same,AC50,[2],2.23 µM (active)
Cn1nc(-c2ccc(C(=O)Nc3ccc(F)cc3)cc2)c2ccccc2c1=O,IC50,[12],10.4 µM (active)
COc1ccccc1OCCn1c(SCC(=O)O)nc2ccccc21,IC50,[12],6.47 µM (active)
CCOC(=O)c1c(C)nc(-c2ccccc2)nc1N,EC50,[9],> 67.5 µM (inactive)
same,EC50,cells [10],> 67.5 µM (inactive)
Cc1cc(N(C)C)nc(Nc2ccccc2)n1,IC50,cells [3],> 29.9 µM (inactive)
same,EC50,[4],0.128 µM (active)
same,IC50,[5],0.273 µM (active)
same,EC50,cells [6],> 29.9 µM (inactive)
CCOC(=O)C(NCCc1ccccc1)(NC(=O)CC)C(F)(F)F (stereo unspecified),IC50,cells [3],> 29.9 µM (inactive)
same,EC50,[4],1.81 µM (active)
same,IC50,[5],8.43 µM (active)
same,EC50,cells [6],> 29.9 µM (inactive)
